{"source": "ChEMBL document CHEMBL3425426", "about": "“Discovery of DS-1558: A Potent and Orally Bioavailable GPR40 Agonist” (ACS Med Chem Lett, 2015)", "biological_target": "Free fatty acid receptor 1 (Homo sapiens, UniProt O14842)", "sequence (O14842 whole entry)": "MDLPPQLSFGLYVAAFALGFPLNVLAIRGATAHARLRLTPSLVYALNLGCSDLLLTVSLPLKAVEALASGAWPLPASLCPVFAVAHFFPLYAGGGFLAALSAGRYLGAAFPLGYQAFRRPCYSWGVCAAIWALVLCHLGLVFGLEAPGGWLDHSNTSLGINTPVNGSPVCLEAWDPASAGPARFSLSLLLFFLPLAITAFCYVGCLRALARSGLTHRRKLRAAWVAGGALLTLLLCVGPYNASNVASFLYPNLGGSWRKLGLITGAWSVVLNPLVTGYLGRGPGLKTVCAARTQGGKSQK", "assay": "Agonist activity at human GPR40 expressed in CHO cells assessed as calcium flux by FLIPR assay", "format": "functional, cell-based", "data": [{"molecule": "CCOC(CC(=O)O)c1ccc(OCc2ccc(Cl)c(Cl)c2)cc1", "note": "(racemic)", "values": [{"measurement": "EC50", "value": 6.2, "unit": "nM"}]}, {"molecule": "CCO[C@@H](CC(=O)O)c1ccc(OC2Cc3ccccc3C2)cc1", "values": [{"measurement": "EC50", "value": 83, "unit": "nM"}]}, {"molecule": "CCO[C@@H](CC(=O)O)c1ccc(O[C@H]2CCc3c2cccc3C(F)(F)F)cc1", "values": [{"measurement": "EC50", "value": 19, "unit": "nM"}]}, {"molecule": "CCO[C@H](CC(=O)O)c1ccc(O[C@H]2CCc3c2cccc3C(F)(F)F)cc1", "values": [{"measurement": "EC50", "value": 2600, "unit": "nM"}]}]}
